molecular target: T1, 5-HT transporter (Rattus norvegicus, UniProt P31652); test: 5-HT uptake inhibition, synaptosomes from rat brain (medulla and pons); assay type: biochemical
T1 construct: from tissue; host or cells: rat brain (medulla and pons), synaptosomes, P2 fraction
How it was run: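 Freshly isolated rat brain synaptosomes (P2 fraction): hypothalamus for NA uptake, medulla/pons for 5-HT uptake. Uptake of [3H]-NA (7.5 min) or [3H]-5-HT (5 min) at room temperature under O2, stopped by filtration over GF/B. Retained radioactivity counted by scintillation.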

T1 sequence (P31652 whole entry): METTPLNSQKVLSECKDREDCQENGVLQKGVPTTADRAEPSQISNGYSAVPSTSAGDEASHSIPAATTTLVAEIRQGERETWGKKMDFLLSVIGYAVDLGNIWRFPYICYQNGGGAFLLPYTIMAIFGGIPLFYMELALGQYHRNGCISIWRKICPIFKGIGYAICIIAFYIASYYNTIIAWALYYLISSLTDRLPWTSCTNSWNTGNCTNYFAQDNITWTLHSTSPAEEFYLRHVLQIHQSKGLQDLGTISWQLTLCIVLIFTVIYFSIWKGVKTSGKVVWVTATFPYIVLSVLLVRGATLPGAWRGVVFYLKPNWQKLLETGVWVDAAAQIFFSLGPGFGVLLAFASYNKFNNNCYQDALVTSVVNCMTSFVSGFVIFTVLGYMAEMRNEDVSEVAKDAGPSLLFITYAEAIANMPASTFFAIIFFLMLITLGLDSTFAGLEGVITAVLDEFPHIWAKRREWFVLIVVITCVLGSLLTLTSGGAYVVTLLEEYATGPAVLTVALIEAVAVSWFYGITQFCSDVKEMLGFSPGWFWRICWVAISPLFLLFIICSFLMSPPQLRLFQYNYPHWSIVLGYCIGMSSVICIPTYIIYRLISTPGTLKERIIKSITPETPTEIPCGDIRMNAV

Q: With O=C(NCC1CC1)c1noc2c1CN(C(=S)NCc1ccc(Cl)cc1)CC2 [Example 129, 5-(4-chloro-benzylthiocarbamoyl)-4,5,6,7-tetrahydro-isoxazolo[4,5-c]pyridine-3-carboxylic acid cyclopropylmethyl amide] as the molecule, how does the inhibition at 10 µM read?
A: Its inhibition at 10 µM is 75%.

Q: Cc1ccc(CNC(=O)c2noc3c2CN(C(=S)Nc2c(F)c(F)c(F)c(F)c2F)CC3)o1 [Example 133, 5-pentafluorophenylthiocarbamoyl-4,5,6,7-tetrahydro-isoxazolo[4,5-c]pyridine-3-carboxylic acid (5-methyl-furan-2-ylmethyl) amide] was tested. Which “5-HT uptake (rat), 10 μM, % inhibition” value did it give?
A: Its value is 63%.

Q: Which inhibition at 10 µM does the source give for CCOC(=O)CCNC(=O)c1noc2c1CN(C(=S)NCC1CCCCC1)CC2 [Example 134, 3-{[5-(cyclohexylmethyl-thiocarbamoyl)-4,5,6,7-tetrahydro-isoxazolo[4,5-c]pyridine-3-carbonyl]-amino}-propionic acid ethyl ester] here?
A: Its inhibition at 10 µM is 61%.

molecular target: T2, NA transporter (Rattus norvegicus, UniProt Q9WTR4); test: Noradrenalin (NA) uptake inhibition, synaptosomes from rat brain (hypothalamus); assay type: biochemical
T2 construct: from tissue; host or cells: rat brain (hypothalamus), synaptosomes, P2 fraction
T2 sequence (Q9WTR4 1-597): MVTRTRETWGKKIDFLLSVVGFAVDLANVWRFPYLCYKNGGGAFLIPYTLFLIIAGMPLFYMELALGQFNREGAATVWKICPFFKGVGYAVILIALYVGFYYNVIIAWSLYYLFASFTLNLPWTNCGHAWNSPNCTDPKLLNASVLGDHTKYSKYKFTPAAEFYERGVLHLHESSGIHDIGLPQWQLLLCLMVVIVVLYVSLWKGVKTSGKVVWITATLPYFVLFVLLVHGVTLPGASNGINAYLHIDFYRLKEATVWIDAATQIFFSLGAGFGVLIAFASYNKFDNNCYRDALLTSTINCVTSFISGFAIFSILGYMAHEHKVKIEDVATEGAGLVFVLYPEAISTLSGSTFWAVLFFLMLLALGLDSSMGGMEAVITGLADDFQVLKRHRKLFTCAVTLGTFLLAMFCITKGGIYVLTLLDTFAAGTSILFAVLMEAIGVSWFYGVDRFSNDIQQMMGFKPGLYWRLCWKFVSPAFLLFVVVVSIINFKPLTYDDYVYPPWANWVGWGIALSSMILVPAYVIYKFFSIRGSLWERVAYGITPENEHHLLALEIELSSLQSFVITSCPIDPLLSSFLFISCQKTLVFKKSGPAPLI
From the text: b) Method for Determining Noradrenalin and 5-HT Uptake Inhibition:
Synaptosomes from rat brain regions are freshly isolated for in vitro studies, as described in the publication “The isolation of nerve endings from brain” by E. G. Gray and V. P. Whittaker, J. Anatomy 96, pages 79-88, 1962. The corresponding literature description is hereby introduced as a reference and is deemed to be part of the disclosure.
The tissue (hypothalamus for the determination of noradrenalin uptake inhibition and medulla and pons for the determination of 5-HT uptake inhibition) is homogenised in ice-cooled 0.32 M sucrose (100 mg of tissue/1 mL) in a glass homogeniser with Teflon pestle using five complete up and down strokes at 840 revolutions/minute.
The homogenate is centrifuged at 4° C. for 10 minutes at 1000 g. After subsequent centrifugation at 17000 g for 55 minutes, the synaptosomes (P2 fraction) are obtained, which are resuspended in 0.32 M […] (0.5 mL/100 mg of original weight).
The particular uptake is measured in a 96-well microtitre plate. The volume is 250 μL and the incubation proceeds at room temperature (approx. 20-25° C.) under an O2 atmosphere.
The incubation time is 7.5 minutes for [^3H]-NA and 5 minutes for [^3H]-5-HT. The 96 samples are then filtered through a Unifilter GF/B® microtitre plate (Packard) and washed with 200 mL of incubated buffer using a “Brabdel MPXRI-96T Cell-Harvester”. The Unifilter GF/B plate is dried for 1 hour at 55° C. The plate is then sealed with a Back Seal® (Packard) and 35 μL of scintillation fluid are added per well (Ultima Gold®, Packard). After sealing with a top Seal® (Packard) and establishing an equilibrium (around 5 hours), radioactivity is determined in a “Trilux 1450 Microbeta” (Wallac).
The quantity of protein used in the above determination corresponds to the values known from the literature, as for example described in “Protein measurement with the folin phenol reagent”, Lowry et al., J. Biol. Chem., 193, 265-275, 1951.
A detailed description of the method may additionally be found in the literature, for example in M. Ch. Frink, H.-H. Hennies, W. Engelberger, M. Haurand and B. Wilffert (1996) Arzneim.-Forsch./Drug Res. 46 (III), 11, 1029-1036.
The following characteristics were determined for the NA or 5-HT transporter: […]

Q: Which “NA Uptake (rat), 10 μM, % inhibition” value does the source give for COc1ccc(Cl)cc1NC(=O)N1CCc2onc(C(=O)NCC(C)C)c2C1 [Example 24, 6,7-dihydro-4H-isoxazolo[4,5-c]pyridine-3,5-dicarboxylic acid 5-[(5-chloro-2-methoxyphenyl) amide] 3-(isobutyl-amide)] here?
A: The value was 51%.

Q: Which inhibition at 10 µM does the source give for CCC(C)(CC(=O)O)CC(=O)N1CCc2onc(C(=O)Nc3ccccc3)c2C1 (centres unmarked) [Example 29, 3-ethyl-3-methyl-5-oxo-5-(3-phenylcarbamoyl-6,7-dihydro-4H-isoxazolo[4,5-c]pyridin-5-yl)-pentanoic acid] here?
A: Its inhibition at 10 µM is 44%.

Q: O=C(c1noc2c1CN(S(=O)(=O)c1ccc(OC(F)(F)F)cc1)CC2)N(CCc1ccccc1)Cc1ccccc1 [Example 32, 5-(4-trifluoromethoxy-benzenesulfonyl)-4,5,6,7-tetrahydro-isoxazolo[4,5-c]pyridine-3-carboxylic acid benzyl-phenethyl amide] was tested. Which inhibition at 10 µM did it give?
A: Its inhibition at 10 µM is 82%.

Q: O=C(NCCCc1ccccc1)c1noc2c1CN(S(=O)(=O)c1ccc(F)cc1)CC2 [Example 35, 5-(4-fluoro-benzenesulfonyl)-4,5,6,7-tetrahydro-isoxazolo[4,5-c]pyridine-3-carboxylic acid (3-phenyl-propyl) amide] was tested. Which inhibition at 10 µM did it give?
A: The inhibition at 10 µM was 73%.

Q: Which inhibition at 10 µM does the source give for CC(CCc1ccccc1)NC(=O)c1noc2c1CN(S(=O)(=O)c1ccc(F)cc1)CC2 (centres unmarked) [Example 38, 5-(4-fluoro-benzenesulfonyl)-4,5,6,7-tetrahydro-isoxazolo[4,5-c]pyridine-3-carboxylic acid (1-methyl-3-phenyl-propyl) amide] here?
A: Its inhibition at 10 µM is 66%.

Q: How did the inhibition at 10 µM turn out when O=C(NC1CCN(Cc2ccc(C(F)(F)F)cc2)C1)c1noc2c1CN(S(=O)(=O)c1ccc(F)cc1)CC2 (centres unmarked) [Example 39, 5-(4-fluoro-benzenesulfonyl)-4,5,6,7-tetrahydro-isoxazolo[4,5-c]pyridine-3-carboxylic acid [1-(4-trifluoromethyl-benzyl)-pyrrolidin-3-yl]amide] was run?
A: The inhibition at 10 µM was 61%.

Q: O=C(NC1CCCC1OCc1ccccc1)c1noc2c1CN(S(=O)(=O)c1cc(Cl)ccc1Cl)CC2 (centres unmarked) [Example 40, 5-(2,5-dichloro-benzenesulfonyl)-4,5,6,7-tetrahydro-isoxazolo[4,5-c]pyridine-3-carboxylic acid (2-benzyloxy-cyclopentyl) amide] was tested. Which inhibition at 10 µM did it give?
A: Its inhibition at 10 µM is 71%.

Q: How did the “NA Uptake (rat), 10 μM, % inhibition” value turn out when CCOC(=O)N1CCC(NC(=O)c2noc3c2CN(S(=O)(=O)c2ccc(F)cc2)CC3)CC1 [Example 43] was run?
A: Its value is 63%.

Q: With O=C(NC1CCCC1)c1noc2c1CN(C(=O)C=Cc1ccccc1)CC2 [Example 44, 5-(3-phenyl-acryloyl)-4,5,6,7-tetrahydro-isoxazolo[4,5-c]pyridine-3-carboxylic acid cyclopentyl amide] as the molecule, how does the inhibition at 10 µM read?
A: Its inhibition at 10 µM is 76%.

Q: With O=C(Cc1ccc(F)c(F)c1)N1CCN(C(=O)c2noc3c2CN(S(=O)(=O)c2ccc(F)cc2)CC3)CC1 [Example 48, 2-(3,4-difluoro-phenyl)-1-{4-[5-(4-fluoro-benzenesulfonyl)-4,5,6,7-tetrahydro-isoxazolo[4,5-c]pyridine-3-carbonyl]-piperazin-1-yl}-ethanone] as the molecule, how does the inhibition at 10 µM read?
A: The inhibition at 10 µM was 61%.

Q: For CN(C)S(=O)(=O)N1CCc2onc(C(=O)N3CCOCC3)c2C1 [Example 49, 3-(morpholine-4-carbonyl)-6,7-dihydro-4H-isoxazolo[4,5-c]pyridine-5-sulfonic acid dimethyl amide], which inhibition at 10 µM is on record?
A: Its inhibition at 10 µM is 73%.

Q: O=C(NCc1cccs1)c1noc2c1CN(C(=O)c1ccco1)CC2 [Example 50, 5-(furan-2-carbonyl)-4,5,6,7-tetrahydro-isoxazolo[4,5-c]pyridine-3-carboxylic acid (thiophen-2-ylmethyl) amide] was tested. Which inhibition at 10 µM did it give?
A: Its inhibition at 10 µM is 71%.

Q: How did the inhibition at 10 µM turn out when CC12CCC(C(=O)N3CCc4onc(C(=O)NCCN5CCCC5)c4C3)(OC1=O)C2(C)C (centres unmarked) [Example 51, 5-(4,7,7-trimethyl-3-oxo-2-oxa-bicyclo[2.2.1]heptane-1-carbonyl)-4,5,6,7-tetrahydro-isoxazolo[4,5-c]pyridine-3-carboxylic acid (2-pyrrolidin-1-yl-ethyl) amide] was run?
A: Its inhibition at 10 µM is 73%.

Q: With O=C(NCCN1CCOCC1)c1noc2c1CN(S(=O)(=O)c1cc(Cl)c(Cl)s1)CC2 [Example 63, 5-(4,5-dichloro-thiophene-2-sulfonyl)-4,5,6,7-tetrahydro-isoxazolo[4,5-c]pyridine-3-carboxylic acid (2-morpholin-4-yl-ethyl) amide] as the molecule, how does the inhibition at 10 µM read?
A: Its inhibition at 10 µM is 77%.

Q: O=C(NC1CCCC1)c1noc2c1CN(C(=O)COc1ccc(Cl)cc1)CC2 [Example 81, 5-[2-(4-chlorophenoxy)-acetyl]-4,5,6,7-tetrahydro-isoxazolo[4,5-c]pyridine-3-carboxylic acid cyclopentyl amide] was tested. Which inhibition at 10 µM did it give?
A: Its inhibition at 10 µM is 68%.

Q: With CC(CCc1ccccc1)NC(=O)c1noc2c1CN(S(=O)(=O)c1ccc(OC(F)(F)F)cc1)CC2 (centres unmarked) [Example 96, 5-(4-trifluoromethoxy-benzenesulfonyl)-4,5,6,7-tetrahydro-isoxazolo[4,5-c]pyridine-3-carboxylic acid (1-methyl-3-phenyl-propyl) amide] as the molecule, how does the inhibition at 10 µM read?
A: Its inhibition at 10 µM is 63%.

Q: With O=C(NC1CCN(Cc2ccc(C(F)(F)F)cc2)C1)c1noc2c1CN(S(=O)(=O)c1ccccc1)CC2 (centres unmarked) [Example 103, 5-benzenesulfonyl-4,5,6,7-tetrahydro-isoxazolo[4,5-c]pyridine-3-carboxylic acid [1-(4-trifluoromethyl-benzyl)-pyrrolidin-3-yl] amide] as the molecule, how does the inhibition at 10 µM read?
A: Its inhibition at 10 µM is 91%.

Q: How did the inhibition at 10 µM turn out when CC(CNC(=O)c1noc2c1CN(S(=O)(=O)c1cccs1)CC2)c1ccccc1 (centres unmarked) [Example 104, 5-(thiophene-2-sulfonyl)-4,5,6,7-tetrahydro-isoxazolo[4,5-c]pyridine-3-carboxylic acid (2-phenyl-propyl) amide] was run?
A: Its inhibition at 10 µM is 77%.

Q: With O=C(NCCc1ccccc1)c1noc2c1CN(C(=O)c1ccc(F)c(Cl)c1)CC2 [Example 105, 5-(3-chloro-4-fluoro-benzoyl)-4,5,6,7-tetrahydro-isoxazolo[4,5-c]pyridine-3-carboxylic acid phenethyl amide] as the molecule, how does the inhibition at 10 µM read?
A: Its inhibition at 10 µM is 62%.

Q: For COc1ccc(OCCNC(=O)c2noc3c2CN(S(=O)(=O)c2ccc(C)cc2)CC3)cc1 [Example 109, 5-(toluene-4-sulfonyl)-4,5,6,7-tetrahydro-isoxazolo[4,5-c]pyridine-3-carboxylic acid [2-(4-methoxy-phenoxy)-ethyl] amide], which inhibition at 10 µM is on record?
A: The inhibition at 10 µM was 64%.

Q: O=C(c1noc2c1CN(S(=O)(=O)c1cc(Cl)ccc1Cl)CC2)N1CCN(c2ccccc2Cl)CC1 [Example 110, [4-(2-chlorophenyl)-piperazin-1-yl]-[5-(2,5-dichloro-benzenesulfonyl)-4,5,6,7-tetrahydro-isoxazolo[4,5-c]pyridin-3-yl]-methanone] was tested. Which inhibition at 10 µM did it give?
A: The inhibition at 10 µM was 86%.

Q: CCOC(=O)CCNC(=O)c1noc2c1CN(C(=O)c1c(F)ccc(C)c1F)CC2 [Example 111, 3-{[5-(2,6-difluoro-3-methyl-benzoyl)-4,5,6,7-tetrahydro-isoxazolo[4,5-c]pyridine-3-carbonyl]-amino}-propionic acid ethyl ester] was tested. Which inhibition at 10 µM did it give?
A: Its inhibition at 10 µM is 66%.

Q: How did the inhibition at 10 µM turn out when O=C(NCCN1CCCC1)c1noc2c1CN(S(=O)(=O)c1cccc(Cl)c1)CC2 [Example 118, 5-(3-chloro-benzenesulfonyl)-4,5,6,7-tetrahydro-isoxazolo[4,5-c]pyridine-3-carboxylic acid (2-pyrrolidin-1-yl-ethyl) amide] was run?
A: Its inhibition at 10 µM is 63%.

Reference: patent publication US8048879B2, “Substituted 4,5,6,7-tetrahydro-isoxazolo[4,5-c]pyridine compounds and use thereof for producing medicaments” (Gruenenthal GmbH, priority 2005, dated 2011)
